Assay results: ChEMBL document CHEMBL5236603, “Discovery of mobocertinib, a potent, oral inhibitor of EGFR exon 20 insertion mutations in non-small cell lung cancer” (Bioorg Med Chem Lett, 2023)

How the values were obtained:
[1] = Inhibition of mouse EGFR D770_N771insNPG mutant stably expressed in mouse BaF3 cells assessed as cell viability incubated for 3 days by Cell Titer-Glo assay; type: cell-based; settings: BaF3, 72 h
[2] = Inhibition of mouse EGFR V769_D770insASV mutant stably expressed in mouse BaF3 cells assessed as cell viability incubated for 3 days by Cell Titer-Glo assay; type: cell-based; settings: BaF3, 72 h
[3] = Inhibition of mouse EGFR Del-T790M double mutant stably expressed in mouse BaF3 cells assessed as cell viability incubated for 3 days by Cell Titer-Glo assay; type: cell-based; settings: BaF3, 72 h
[4] = Inhibition of mouse EGFR delE746_A750 mutant stably expressed in mouse BaF3 cells assessed as cell viability incubated for 3 days by Cell Titer-Glo assay; type: cell-based; settings: BaF3, 72 h
[5] = Cmax in CD rat at 5 mg/kg, po by LC/MS/MS analysis; type: ADME, organism-based; set-up: dose 5 mg/kg, route po; settings: in vivo
[6] = target: Epidermal growth factor receptor (Homo sapiens, UniProt P00533); assay: Inhibition of […]-induced EGFR phosphorylation in human A549 cells pretreated for 2 hrs followed by EGF stimulation by immune assay; type: cell-based
Sequence of Epidermal growth factor receptor (P00533 whole entry): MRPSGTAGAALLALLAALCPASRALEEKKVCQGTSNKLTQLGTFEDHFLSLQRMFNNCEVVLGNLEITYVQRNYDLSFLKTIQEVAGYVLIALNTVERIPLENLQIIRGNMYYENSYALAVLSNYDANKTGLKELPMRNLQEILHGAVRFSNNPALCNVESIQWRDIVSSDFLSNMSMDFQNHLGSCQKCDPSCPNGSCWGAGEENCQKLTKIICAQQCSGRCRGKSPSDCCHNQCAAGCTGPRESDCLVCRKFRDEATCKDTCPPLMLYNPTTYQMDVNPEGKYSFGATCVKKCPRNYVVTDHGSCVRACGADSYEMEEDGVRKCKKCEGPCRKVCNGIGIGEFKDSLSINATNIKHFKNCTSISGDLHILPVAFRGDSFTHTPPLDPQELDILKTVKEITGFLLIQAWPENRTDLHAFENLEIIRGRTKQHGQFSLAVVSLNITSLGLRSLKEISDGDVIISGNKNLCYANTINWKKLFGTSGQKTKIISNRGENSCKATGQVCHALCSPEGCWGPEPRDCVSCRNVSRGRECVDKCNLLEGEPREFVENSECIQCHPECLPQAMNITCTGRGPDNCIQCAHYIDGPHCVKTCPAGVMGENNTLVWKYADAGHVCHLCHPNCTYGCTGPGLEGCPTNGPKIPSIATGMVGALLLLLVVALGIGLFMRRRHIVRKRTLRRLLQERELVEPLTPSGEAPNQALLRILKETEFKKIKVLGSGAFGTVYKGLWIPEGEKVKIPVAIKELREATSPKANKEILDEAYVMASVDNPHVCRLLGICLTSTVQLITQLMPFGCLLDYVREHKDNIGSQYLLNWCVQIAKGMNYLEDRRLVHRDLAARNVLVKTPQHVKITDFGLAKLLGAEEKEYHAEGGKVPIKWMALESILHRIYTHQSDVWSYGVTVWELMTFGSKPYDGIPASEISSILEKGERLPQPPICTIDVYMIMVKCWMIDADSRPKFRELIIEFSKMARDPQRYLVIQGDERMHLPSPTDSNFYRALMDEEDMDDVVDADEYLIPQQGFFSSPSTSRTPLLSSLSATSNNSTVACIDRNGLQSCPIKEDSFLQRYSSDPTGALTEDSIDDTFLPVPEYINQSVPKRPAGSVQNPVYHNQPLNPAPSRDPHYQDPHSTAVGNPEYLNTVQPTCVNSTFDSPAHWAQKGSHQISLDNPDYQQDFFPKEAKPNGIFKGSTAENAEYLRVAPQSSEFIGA

[7] = AUClast in CD-1 mouse at 10 mg/kg, po by LC/MS/MS analysis; type: ADME, organism-based; set-up: dose 10 mg/kg, route po; settings: in vivo
[8] = AUC (0 to last)in CD rat at 5 mg/kg, po by LC/MS/MS analysis; type: ADME, organism-based; set-up: dose 5 mg/kg, route po; settings: in vivo
[9] = Cmax in CD-1 mouse at 10 mg/kg, po by LC/MS/MS analysis; type: ADME, organism-based; set-up: dose 10 mg/kg, route po; settings: in vivo
[10] = Cmax in CD-1 rat at 10 mg/kg, po by LC/MS/MS analysis; type: ADME, organism-based; set-up: dose 10 mg/kg, route po; settings: in vivo
[11] = AUClast in CD-1 rat at 10 mg/kg, po by LC/MS/MS analysis; type: ADME, organism-based; set-up: dose 10 mg/kg, route po; settings: in vivo
[12] = test system: BaF3; assay: In vivo antitumor activity against mouse BaF3 cells expressing EGFR exon 20 insertion (ex20ins) ASV implanted in SCID mouse assessed as tumor growth inhibition at 50 mg/kg, po administered for 7 consecutive days; type: functional; settings: 168 h, time 7 day, read-out: TGI
[13] = test system: BaF3; assay: In vivo antitumor activity against mouse BaF3 cells expressing EGFR exon 20 insertion (ex20ins) ASV implanted in SCID mouse assessed as tumor regression at 100 mg/kg, po administered for 7 consecutive days; type: functional; settings: time 7 day
[14] = test system: BaF3; assay: In vivo antitumor activity against mouse BaF3 cells expressing EGFR exon 20 insertion (ex20ins) ASV implanted in SCID mouse assessed as tumor growth inhibition at 100 mg/kg, po administered for 7 consecutive days; type: functional; settings: BaF3, 168 h, time 7 day, read-out: TGI

Row | SMILES | IC50 [1] | IC50 [2] | IC50 [3] | IC50 [4] | Cmax [5] | IC50 [6] | AUC(0-t) [7] | AUC(0-t) [8] | Cmax [9] | Cmax [10] | AUC(0-t) [11] | inhibition in vivo at 50 mg/kg [12] | Activity [13] | inhibition in vivo at 100 mg/kg [14]
1 | C=CC(=O)Nc1cccc(Nc2nc(Nc3ccc(N4CCN(C(C)=O)CC4)cc3OC)ncc2C(F)(F)F)c1 [ROCILETINIB] | 179 nM | 883 nM | 9 nM | 25 nM | – | – | – | – | – | – | – | – | – | –
2 | C=CC(=O)Nc1cc(Nc2ncc(-c3cnn(C)c3)c(-c3cn4c5c(cccc35)CCC4)n2)c(OC)cc1N(C)CCN(C)C | – | 16 nM | – | – | 90 ng/mL | 15 nM | 105 ng·h/mL | 853 ng·h/mL | 59 ng/mL | – | – | – | – | –
3 | C=CC(=O)Nc1cc(Nc2ncc(Cl)c(-c3cnn4ccccc34)n2)c(OC)cc1N(C)CCN(C)C | 32 nM | 59 nM | – | – | – | 95 nM | – | – | – | – | – | – | – | –
4 | C=CC(=O)Nc1cc(Nc2ncc(C(=O)OC(C)C)c(-c3cn(C4CC4)c4ccccc34)n2)c(OC)cc1N(C)CCN(C)C | 23 nM | 30 nM | – | – | – | 224 nM | – | – | – | – | – | – | – | –
5 | C=CC(=O)Nc1cc(Nc2nccc(-c3cn(C)c4ccccc34)n2)c(OC)cc1N(C)CCN(C)C [OSIMERTINIB] | 53 nM | 158 nM | 7 nM | 6 nM | – | – | – | – | 175 ng/mL | 98 ng/mL | – | – | – | –
6 | C=CC(=O)Nc1cc(Nc2ncc(C(=O)OCC(C)C)c(-c3cn(C)c4ccccc34)n2)c(OC)cc1N(C)CCN(C)C | 14 nM | 43 nM | – | – | – | 142 nM | – | – | – | – | – | – | – | –
7 | C=CC(=O)Nc1cc(Nc2ncc(-c3nnco3)c(-c3cn4c5c(cccc35)CCC4)n2)c(OC)cc1N(C)CCN(C)C | 6.2 nM | 13 nM | – | – | – | 15 nM | 22 ng·h/mL | – | 9 ng/mL | 38 ng/mL | 427 ng·h/mL | – | – | –
8 | C=CC(=O)Nc1cc(Nc2ncc(C(=O)OC)c(-c3cn4c5c(cccc35)CCC4)n2)c(OC)cc1N(C)CCN(C)C | 6.57 nM | 22.1 nM | – | – | – | 40 nM | 56 ng·h/mL | – | 20 ng/mL | 170 ng/mL | 1920 ng·h/mL | – | – | –
9 | C=CC(=O)Nc1cc(Nc2ncc(C(=O)CC)c(-c3cn4c5c(cccc35)CCC4)n2)c(OC)cc1N(C)CCN(C)C | 4.95 nM | 17.3 nM | – | – | – | 23 nM | – | – | – | – | – | – | – | –
10 | C=CC(=O)Nc1cc(Nc2ncc(Cl)c(-c3cn4c5c(cccc35)OCC4)n2)c(OC)cc1N(C)CCN(C)C | 15 nM | 35 nM | – | – | – | 36 nM | – | – | – | – | – | – | – | –
11 | C#Cc1cnc(Nc2cc(NC(=O)C=C)c(N(C)CCN(C)C)cc2OC)nc1-c1cn2c3c(cccc13)CCC2 | 9.8 nM | 25 nM | – | – | – | 42 nM | – | – | – | – | – | – | – | –
12 | C=CC(=O)Nc1cc(Nc2ncc(Cl)c(-c3cn4c5c(cccc35)CCC4)n2)c(OC)cc1N(C)CCN(C)C | 22 nM | 58 nM | – | – | – | 71 nM | – | – | – | – | – | – | – | –
13 | C=CC(=O)Nc1cc(Nc2ncc(C(=O)OC(C)C)c(-c3cn4c5c(cccc35)CCC4)n2)c(OC)cc1N(C)CCN(C)C | 6.57 nM | 12.4 nM | – | – | – | 39 nM | – | – | – | – | – | – | – | –
14 | C=CC(=O)Nc1cc(Nc2ncc(C(=O)OC(C)C)c(-c3cn(CC)c4ccccc34)n2)c(OC)cc1N(C)CCN(C)C | 5 nM | 7 nM | – | – | – | 24 nM | 631 ng·h/mL | – | 72 ng/mL | 149 ng/mL | 1920 ng·h/mL | – | – | –
15 | C=CC(=O)Nc1cc(Nc2ncc(C(=O)OC(C)C)c(-c3cn(C)c4ccccc34)n2)c(OC)cc1N(C)C[C@H]1CCCN1C | 6 nM | 12 nM | – | – | – | 43 nM | 294 ng·h/mL | – | 94 ng/mL | 40 ng/mL | 323 ng·h/mL | 72% | -10% | –
16 | C=CC(=O)Nc1cc(Nc2ncc(C#N)c(-c3cn4c5c(cccc35)CCC4)n2)c(OC)cc1N(C)CCN(C)C | 3.99 nM | 9.38 nM | – | – | – | 35 nM | 200 ng·h/mL | – | 29 ng/mL | 13 ng/mL | 58 ng·h/mL | – | – | 76%

Row | SMILES | IC50 [1] | IC50 [2] | IC50 [3] | IC50 [4] | Cmax [5] | IC50 [6] | AUC(0-t) [7] | AUC(0-t) [8] | Cmax [9] | Cmax [10] | AUC(0-t) [11] | inhibition in vivo at 50 mg/kg [12] | Activity [13] | inhibition in vivo at 100 mg/kg [14]
17 | C=CC(=O)Nc1cc(Nc2nccc(-c3cn4c5c(cccc35)OCC4)n2)c(OC)cc1N(C)CCN(C)C | 52 nM | 137 nM | – | – | – | – | 438 ng·h/mL | – | 97 ng/mL | 207 ng/mL | 2680 ng·h/mL | – | – | –
18 | C=CC(=O)Nc1cc(Nc2ncc(C(=O)OCC)c(-c3cn(C)c4ccccc34)n2)c(OC)cc1N(C)CCN(C)C | 6 nM | 13 nM | – | – | – | 19 nM | 129 ng·h/mL | – | 45 ng/mL | 113 ng/mL | 1540 ng·h/mL | – | – | –
19 | C=CC(=O)Nc1cc(Nc2ncc(C(=O)OC)c(-c3cn(C)c4ccccc34)n2)c(OC)cc1N(C)CCN(C)C | 8 nM | 18 nM | – | – | – | 20 nM | 92 ng·h/mL | – | 31 ng/mL | 207 ng/mL | 2300 ng·h/mL | – | – | –
20 | C=CC(=O)Nc1cc(Nc2nccc(-c3cn4c5c(cccc35)CCC4)n2)c(OC)cc1N(C)CCN(C)C | 54 nM | 197 nM | – | – | – | 405 nM | 285 ng·h/mL | – | 81 ng/mL | 126 ng/mL | 466 ng·h/mL | – | – | –
21 | C=CC(=O)Nc1cc(Nc2ncc(C(=O)NC)c(-c3cn4c5c(cccc35)CCC4)n2)c(OC)cc1N(C)CCN(C)C | 37.6 nM | 136 nM | – | – | – | 147 nM | – | – | – | – | – | – | – | –
22 | C=CC(=O)Nc1cc(Nc2ncc(-c3ccnn3C)c(-c3cn4c5c(cccc35)CCC4)n2)c(OC)cc1N(C)CCN(C)C | 11 nM | 28 nM | – | – | – | 23 nM | 884 ng·h/mL | – | 218 ng/mL | 320 ng/mL | 2950 ng·h/mL | – | – | –
23 | C=CC(=O)Nc1cc(Nc2ncc(C(=O)OC(C)C)c(-c3cn(C)c4ccccc34)n2)c(OC)cc1N(C)C[C@@H]1CCCN1C | 8 nM | 14 nM | – | – | – | 57 nM | 643 ng·h/mL | – | 145 ng/mL | 107 ng/mL | 1390 ng·h/mL | 82% | -51% | –
24 | C=CC(=O)Nc1cc(Nc2ncc(C(=O)OC3CCC3)c(-c3cn(C)c4ccccc34)n2)c(OC)cc1N(C)CCN(C)C | 9 nM | 28 nM | – | – | – | 84 nM | – | – | – | – | – | – | – | –
25 | C=CC(=O)Nc1cc(Nc2ncc(C(=O)OCC)c(-c3cn4c5c(cccc35)CCC4)n2)c(OC)cc1N(C)CCN(C)C | 6.43 nM | 15 nM | – | – | – | 32 nM | 102 ng·h/mL | – | 29 ng/mL | 110 ng/mL | 1480 ng·h/mL | – | – | –
26 | C=CC(=O)Nc1cc(Nc2ncc(-c3nc(C)no3)c(-c3cn4c5c(cccc35)CCC4)n2)c(OC)cc1N(C)CCN(C)C | 11 nM | 38 nM | – | – | – | 49 nM | 96 ng·h/mL | – | 31 ng/mL | – | – | – | – | –
27 | CN(C)C/C=C/C(=O)Nc1cc2c(Nc3ccc(F)c(Cl)c3)ncnc2cc1O[C@H]1CCOC1 [AFATINIB] | 36 nM | 44 nM | 97 nM | 0.6 nM | – | – | – | – | – | – | – | – | – | –
28 | C=CC(=O)Nc1cc(Nc2ncc(-c3ncco3)c(-c3cn4c5c(cccc35)CCC4)n2)c(OC)cc1N(C)CCN(C)C | 9 nM | 29 nM | – | – | – | 45 nM | 234 ng·h/mL | – | 57 ng/mL | 86 ng/mL | 1140 ng·h/mL | – | – | –
29 | C=CC(=O)Nc1cc(Nc2ncc(Cl)c(-c3c4n(c5ccccc35)CCOC4)n2)c(OC)cc1N(C)CCN(C)C | 754 nM | 1020 nM | – | – | – | 2970 nM | – | – | – | – | – | – | – | –
30 | C=CC(=O)Nc1cc(Nc2nccc(-c3c4n(c5ccccc35)CCOC4)n2)c(OC)cc1N(C)CCN(C)C | 53 nM | 112 nM | – | – | – | 288 nM | 655 ng·h/mL | – | 183 ng/mL | 248 ng/mL | 2670 ng·h/mL | – | – | –
31 | C=CC(=O)Nc1cc(Nc2ncc(-c3cnn(C(C)C)c3)c(-c3cn4c5c(cccc35)CCC4)n2)c(OC)cc1N(C)CCN(C)C | 13 nM | 16 nM | – | – | – | 15 nM | 353 ng·h/mL | – | 46 ng/mL | 163 ng/mL | 2020 ng·h/mL | – | – | –
32 | C=CC(=O)Nc1cc(Nc2ncc(C(=O)OC(C)C)c(-c3cn(C(C)=O)c4ccccc34)n2)c(OC)cc1N(C)CCN(C)C | 3 nM | 4 nM | – | – | – | 79 nM | 87 ng·h/mL | – | 42 ng/mL | 16 ng/mL | 38 ng·h/mL | – | – | –
